Holding throughout (assay): Glasshouse assay for herbicidal activity (pre- and post-emergence), percentage phytotoxicity
Common to all, as to type: in vivo

One assay relates to Lolium perenne (LOLPE). The settings on record: Lolium perenne; for pest or weed control at 250 g/ha: visual assessment (100%=total damage, 0%=no damage). In short, it runs like this: (§1)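 Pot-grown plants treated one day after sowing (pre-emergence) or at about 12 days (post-emergence); glasshouse at 24/18° C (warm) or 20/16° C (cool species) day/night, 16 h light, 65% humidity. Visual % phytotoxicity (0 = none, 100 = total damage) scored at 15 DAA post or 20 DAA pre.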

For the next assay, the system named is Avena fatua (AVEFA). The settings on record: Avena fatua; for pest or weed control at 250 g/ha: visual assessment (100%=total damage, 0%=no damage). In short, it runs like this:
as §1

Assay [1] relates to Echinochloa crus-galli (ECHCG). The settings on record: Echinochloa crus-galli; for pest or weed control at 250 g/ha: visual assessment (100%=total damage, 0%=no damage). In a few lines:
as §1

The test system of assay [2] is Alopecurus myosuroides (ALOMY). The settings on record: Alopecurus myosuroides; for pest or weed control at 250 g/ha: visual assessment (100%=total damage, 0%=no damage). In a few lines: as §1
The mark [3] stands for this setting: post-emergence, 360 h, post-emergence, 15 DAA, read-out: Post-emergence herbicidal activity (percentage phytotoxicity) LOLPE POST.
Where [4] appears, read: pre-emergence, 480 h, pre-emergence, 20 DAA, read-out: Pre-emergence herbicidal activity (percentage phytotoxicity) LOLPE PRE.
Setting [5] is: post-emergence, 360 h, post-emergence, 15 DAA, read-out: Post-emergence herbicidal activity (percentage phytotoxicity) AVEFA POST.
Where [6] appears, read: pre-emergence, 480 h, pre-emergence, 20 DAA, read-out: Pre-emergence herbicidal activity (percentage phytotoxicity) AVEFA PRE.
Setting [7] is: post-emergence, 360 h, post-emergence, 15 DAA, read-out: Post-emergence herbicidal activity (percentage phytotoxicity) ECHCG POST.
[8] abbreviates: pre-emergence, 480 h, pre-emergence, 20 DAA, read-out: Pre-emergence herbicidal activity (percentage phytotoxicity) ECHCG PRE.
Setting [9] is: post-emergence, 360 h, post-emergence, 15 DAA, read-out: Post-emergence herbicidal activity (percentage phytotoxicity) ALOMY POST.
Setting [10] is: pre-emergence, 480 h, pre-emergence, 20 DAA, read-out: Pre-emergence herbicidal activity (percentage phytotoxicity) ALOMY PRE.

Read-outs that look alike come from different tables or passages of the source.

`Cc1cc(C)c(C2C(=O)CC(CC(=O)NC3CC3C(F)(F)F)C2=O)c(C)c1` (stereo not drawn) [Compound B97]: the pest or weed control at 250 g/ha with Lolium perenne (LOLPE) (setting [3]) was 70%; in the assay with Lolium perenne (LOLPE) (setting [4]) it was 80%; with Avena fatua (AVEFA) (setting [5]), 50%; in the assay with Avena fatua (AVEFA) (setting [6]) it was 0%; in assay [1] (setting [7]) it was 80%; in assay [1] (setting [8]), 90%. For the same molecule, the pest or weed control at 250 g/ha in assay [2] (setting [9]) was 70%; in assay [2] (setting [10]), 80%.
In the case of `Cc1cc(C)c(C2C(=O)CC(CC(=O)NC3CC3(F)F)C2=O)c(C)c1` (stereo not drawn) [Compound B98], the pest or weed control at 250 g/ha was 80% with Lolium perenne (LOLPE) (setting [3]); 90% in the assay on Lolium perenne (LOLPE) (setting [4]); 20% with Avena fatua (AVEFA) (setting [5]); 0% in the assay on Avena fatua (AVEFA) (setting [6]); 60% in assay [1] (setting [7]); 80% in assay [1] (setting [8]). The pest or weed control at 250 g/ha in assay [2] (setting [9]) and in assay [2] (setting [10]) was 60% throughout.
On to `Cc1cc(-c2cc(C#N)c(F)cn2)cc(C)c1C1C(=O)CC(CC(=O)NC(C)(C)C)C1=O` (stereo not drawn) [Compound B99], for which the pest or weed control at 250 g/ha with Lolium perenne (LOLPE) (setting [3]) turned out to be 80%; with Lolium perenne (LOLPE) (setting [4]), 80%; in the assay on Avena fatua (AVEFA) (setting [5]) it was 20%; with Avena fatua (AVEFA) (setting [6]) it was 30%; in assay [1] (setting [7]) it was 80%; in assay [1] (setting [8]), 70%. Also, the pest or weed control at 250 g/ha in assay [2] (setting [9]) and in assay [2] (setting [10]) was 70% in each case.
For the molecule `Cc1cc(-c2ncc(F)cc2F)cc(C)c1C1C(=O)CC(CC(=O)NCc2ccc(Br)cc2)C1=O` (stereo not drawn) [Compound B100], the pest or weed control at 250 g/ha in the assay on Lolium perenne (LOLPE) (setting [3]) was 100%; in the assay with Lolium perenne (LOLPE) (setting [4]), 90%; in the assay on Avena fatua (AVEFA) (setting [5]), 100%; in the assay with Avena fatua (AVEFA) (setting [6]), 60%; in assay [1] (setting [7]), 100%; in assay [1] (setting [8]), 100%. For the same molecule, the figures for the pest or weed control at 250 g/ha in assay [2] (setting [9]) and in assay [2] (setting [10]) were 100% and 80%, respectively.
Regarding `Cc1cc(-c2ncc(F)cc2F)cc(C)c1C1C(=O)CC(CC(=O)N2CCOCC2)C1=O` (stereo not drawn) [Compound B101], the pest or weed control at 250 g/ha with Lolium perenne (LOLPE) (setting [3]) was found to be 100%; in the assay on Lolium perenne (LOLPE) (setting [4]), 100%; in the assay on Avena fatua (AVEFA) (setting [5]), 90%; with Avena fatua (AVEFA) (setting [6]), 70%; in assay [1] (setting [7]), 100%; in assay [1] (setting [8]), 100%. For the same molecule, the pest or weed control at 250 g/ha in assay [2] (setting [9]) and in assay [2] (setting [10]) was 90% in each case.
With `C=C(Br)CNC(=O)CC1CC(=O)C(c2c(C)cc(C)cc2C)C1=O` (stereo not drawn) [Compound B102], the pest or weed control at 250 g/ha with Lolium perenne (LOLPE) (setting [3]) amounted to 90%; with Lolium perenne (LOLPE) (setting [4]), 100%; with Avena fatua (AVEFA) (setting [5]), 60%; in the assay on Avena fatua (AVEFA) (setting [6]), 0%; in assay [1] (setting [7]), 60%; in assay [1] (setting [8]) it was 80%. Further, the pest or weed control at 250 g/ha in assay [2] (setting [9]) and in assay [2] (setting [10]) was 60% each time.
`CCNC(=O)CC1CC(=O)C(c2c(C)cc(-c3ncc(Cl)cc3F)cc2C)C1=O` (stereo not drawn) [Compound B103]: the pest or weed control at 250 g/ha came out at 100% in the assay with Lolium perenne (LOLPE) (setting [3]); 100% in the assay on Lolium perenne (LOLPE) (setting [4]); 100% in the assay on Avena fatua (AVEFA) (setting [5]); 90% in the assay with Avena fatua (AVEFA) (setting [6]); 100% in assay [1] (setting [7]); 100% in assay [1] (setting [8]). Moreover, the pest or weed control at 250 g/ha in assay [2] (setting [9]) and in assay [2] (setting [10]) was 100% in each case.
As for `Cc1cc(-n2ncc(Cl)c2C)cc(C)c1C1C(=O)CC(CC(=O)NC(C)(C)C)C1=O` (stereo not drawn) [Compound B104], the pest or weed control at 250 g/ha in the assay with Lolium perenne (LOLPE) (setting [3]) is 70%; in the assay on Lolium perenne (LOLPE) (setting [4]), 10%; in the assay with Avena fatua (AVEFA) (setting [5]), 80%; with Avena fatua (AVEFA) (setting [6]), 10%; in assay [1] (setting [7]), 70%; in assay [1] (setting [8]) it was 20%. Besides, the pest or weed control at 250 g/ha in assay [2] (setting [9]) was found to be 80%; in assay [2] (setting [10]) it was 40%.
Turning to `Cc1cc(-n2cc(Cl)c(C)n2)cc(C)c1C1C(=O)CC(CC(=O)NC(C)(C)C)C1=O` (stereo not drawn) [Compound B105], the pest or weed control at 250 g/ha stood at 60% in the assay with Lolium perenne (LOLPE) (setting [3]); 70% with Lolium perenne (LOLPE) (setting [4]); 60% with Avena fatua (AVEFA) (setting [5]); 20% in the assay with Avena fatua (AVEFA) (setting [6]); 100% in assay [1] (setting [7]); 100% in assay [1] (setting [8]). Also, the pest or weed control at 250 g/ha in assay [2] (setting [9]) and in assay [2] (setting [10]) was 70% throughout.
For the molecule `COCCCNC(=O)CC1CC(=O)C(c2c(C)cc(-c3ncc(F)cn3)cc2C)C1=O` (stereo not drawn) [Compound B106], the pest or weed control at 250 g/ha with Lolium perenne (LOLPE) (setting [3]) stood at 100%; in the assay with Lolium perenne (LOLPE) (setting [4]) it was 90%; with Avena fatua (AVEFA) (setting [5]), 100%; with Avena fatua (AVEFA) (setting [6]), 70%; in assay [1] (setting [7]), 100%; in assay [1] (setting [8]), 100%. For the same molecule, the pest or weed control at 250 g/ha came to 100% in assay [2] (setting [9]) and 80% in assay [2] (setting [10]).
Turning to `Cc1cc(-c2ncc(F)cn2)cc(C)c1C1C(=O)CC(CC(N)=O)C1=O` (stereo not drawn) [Compound B107], the pest or weed control at 250 g/ha with Lolium perenne (LOLPE) (setting [3]) was found to be 80%; with Lolium perenne (LOLPE) (setting [4]), 20%; in the assay with Avena fatua (AVEFA) (setting [5]), 90%; with Avena fatua (AVEFA) (setting [6]), 10%; in assay [1] (setting [7]) it was 80%; in assay [1] (setting [8]), 60%. Moreover, the pest or weed control at 250 g/ha in assay [2] (setting [9]) came to 80%; in assay [2] (setting [10]) it was 60%.
As for `C=CCNC(=O)CC1CC(=O)C(c2c(C)cc(-c3ncc(F)cn3)cc2C)C1=O` (stereo not drawn) [Compound B108], the pest or weed control at 250 g/ha with Lolium perenne (LOLPE) (setting [3]) worked out at 100%; in the assay on Lolium perenne (LOLPE) (setting [4]), 90%; in the assay on Avena fatua (AVEFA) (setting [5]), 100%; in the assay with Avena fatua (AVEFA) (setting [6]) it was 90%; in assay [1] (setting [7]), 100%; in assay [1] (setting [8]), 100%. In addition, the pest or weed control at 250 g/ha in assay [2] (setting [9]) and in assay [2] (setting [10]) was 100% in each case.
As to `Cc1cc(-c2ncc(F)cn2)cc(C)c1C1C(=O)CC(CC(=O)NCC(C)(C)C)C1=O` (stereo not drawn) [Compound B109], the pest or weed control at 63 g/ha is 70% with Lolium perenne (LOLPE) (setting [3]); 60% with Lolium perenne (LOLPE) (setting [4]); 80% in the assay with Avena fatua (AVEFA) (setting [5]); 100% in the assay with Avena fatua (AVEFA) (setting [6]); 90% in assay [1] (setting [7]); 80% in assay [1] (setting [8]). For the same molecule, the pest or weed control at 63 g/ha stood at 20% in assay [2] (setting [9]) and 70% in assay [2] (setting [10]).
For the molecule `C#CCN(CC#C)C(=O)CC1CC(=O)C(c2c(C)cc(-c3ncc(F)cn3)cc2C)C1=O` (stereo not drawn) [Compound B110], the pest or weed control at 250 g/ha in the assay with Lolium perenne (LOLPE) (setting [3]) worked out at 90%; with Lolium perenne (LOLPE) (setting [4]) it was 80%; in the assay with Avena fatua (AVEFA) (setting [5]), 100%; with Avena fatua (AVEFA) (setting [6]), 80%; in assay [1] (setting [7]), 100%; in assay [1] (setting [8]), 100%. Also, the pest or weed control at 250 g/ha in assay [2] (setting [9]) is 100%; in assay [2] (setting [10]), 90%.
As to `CCCCNC(=O)CC1CC(=O)C(c2c(C)cc(-c3ncc(F)cn3)cc2C)C1=O` (stereo not drawn) [Compound B111], the pest or weed control at 250 g/ha is 100% in the assay with Lolium perenne (LOLPE) (setting [3]); 100% in the assay on Lolium perenne (LOLPE) (setting [4]); 100% in the assay with Avena fatua (AVEFA) (setting [5]); 90% in the assay on Avena fatua (AVEFA) (setting [6]); 100% in assay [1] (setting [7]); 100% in assay [1] (setting [8]). Further, the pest or weed control at 250 g/ha in assay [2] (setting [9]) worked out at 100%; in assay [2] (setting [10]), 70%.

Values taken from patent US10206394B2, “Herbicidal compounds” (Syngenta Participations AG, priority 2014, dated 2019).
